Laboratory results from patent US10314827B2, “Methods of use of cyclopamine analogs” (Infinity Pharmaceuticals, Inc., priority 2006, dated 2019).
Where two headings read alike, the source gives them in different places.

Legend:
Hedgehog pathway = assay: C3H10T1/2 osteoblast differentiation assay (alkaline phosphatase readout); assay type: cell-based, Mouse; details: C3H10T1/2 cells, sonic Hedgehog 250 ng/ml, AP activity normalized to total protein, read-out: Differentiation Assay EC50 (approximate EC50 for inhibition)
Text: Hedgehog pathway specific cancer cell killing effects may be ascertained using the following assay. C3H10T1/2 cells differentiate into osteoblasts when contacted with the sonic hedgehog peptide (Shh-N). Upon differentiation; these osteoblasts produce high levels of alkaline phosphatase (AP) which can be measured in an enzymatic assay (Nakamura et al., X BBRC (1997) 237:465). Compounds that block the differentiation of C3H10T1/2 into osteoblasts (a Shh dependent event) can therefore be identified by a reduction in AP production (van der Horst et al., Bone (2003) 33:899). The assay details are described below. The results approximate (EC50 for inhibition) of the differentiation assay is shown below in Table 1.
Mouse embryonic mesoderm fibroblasts C3H10T1/2 cells (obtained from ATCC) were cultured in Basal MEM Media (Gibco/Invitrogen) supplemented with 10% heat inactivated FBS (Hyclone), 50 units/ml penicillin and 50 ug/ml streptomycin (Gibco/Invitrogen) at 37° C. With 5% CO2 in air atmosphere.
C3H10T1/2 cells were plated in 96 wells with a density of 8×10^3 cells/well. Cells were grown to confluence (72 hrs). After sonic Hedgehog (250 ng/ml), and/or compound treatment, the cells were lysed in 110 μL of lysis buffer (50 mm Tris ph 7.4, 0.1% tritonx100), plates were sonicated and lysates spun through 0.2 μm PVDF plates (Corning). 40 μL of lysates was assayed for AP activity in alkaline buffer solution (Sigma) containing 1 mg/ml p-Nitrophenyl Phosphate. After incubating for 30 min at 37° C., the plates were read on an Envision plate reader at 405 nm. Total protein was quantified with a BCA protein assay kit from Pierce according to manufacturer's instructions. AP activity was normalized against total protein.

BXPC-3 cells = assay: Pancreatic cancer model: subcutaneous BXPC-3 tumors in mice; assay type: in vivo, human; details: orally 40 mg/kg/day, 25 daily doses, p=0.0309
Experimental: (§1) The activity of Compound 42 was further tested in a human pancreatic model: BXPC-3 cells were implanted subcutaneously into the flanks of the right legs of mice. On day 42 post-tumor implant, the mice were randomized into two groups to receive either Vehicle (30% HPBCD) or Compound 42. Compound 42 administered orally at 40 mg/kg/day. […] At the end of the study, the tumors were harvested 4 hours post the last dose to evaluate an on target response by q-RT-PCR analysis of the HH pathway genes.

human Gli-1 = assay: q-RT-PCR of HH pathway genes in harvested BXPC-3 tumors, human Gli-1; assay type: in vivo; details: tumors harvested 4 hours post last dose, 40 mg/kg/day orally
Experimental: as §1

murine Gli-1 = assay: q-RT-PCR of HH pathway genes in harvested BXPC-3 tumors, murine Gli-1; assay type: in vivo; details: tumors harvested 4 hours post last dose, 40 mg/kg/day orally, vs vehicle group
Experimental: as §1

medulloblastoma = assay: Medulloblastoma model: Ptch1/Hic1 subcutaneous allografts, tumor growth; assay type: in vivo, mouse
Experimental: (§2) The activity of Compound 42 was also evaluated in a transgenic mouse model of medulloblastoma. Mice that are heterozygous for loss of function mutations in the tumor suppressors Patched1 (Ptch1) and Hypermethylated in Cancer (Hic1) develop spontaneous medulloblastoma. […] When passaged as subcutaneous allografts, these tumors grow aggressively and are Hedgehog pathway-dependent. This model was employed to evaluate the efficacy of orally administered Compound, and to correlate activity with drug exposure in plasma and tumors.
The approximate effective daily oral dose for 50% inhibition of tumor growth (ED50) is 4 mg/kg.

Gli-1 = assay: Medulloblastoma model: Gli-1 mRNA expression in subcutaneously implanted tumors; assay type: in vivo, mouse; details: single oral dose, 8 hours post dose
Experimental: as §2

LX22 cells = assay: Lung cancer model: LX22 primary SCLC xenograft; assay type: in vivo, human
Text: To test the activity of Compound 42 in a human SCLC tumor model, LX22 cells were implanted subcutaneously into the flank of the right leg. LX22 is primary xenograft model of SCLC derived from chemo-naive patients, which has been maintained by mouse to mouse passaging. This tumor responds to etoposide/carboplatin chemotherapy in way that closely resembles a clinical setting. LX22 regresses during chemotherapy treatment, goes through a period of remission, and then begins to recur. In the LX22 model, Compound single agent activity and its ability to modulate the chemoresistant recurrence was tested. On day 32 post tumor implant, mice were randomized into three dosing groups to receive Vehicle (30% HBPCD), Compound, or the chemotherapy combination of etoposide and carboplatin (E/P). […] Etoposide was administered i.v at 12 mg/kg on days 34, 35, 36, and 48, while Carboplatin was administered i.v. At 60 mg/kg on days 34, 41, and 48, post tumor implant. On day 50, the E/P treated mice were further randomized to receive either Vehicle (30% HPBCD) or Compound follow up treatment.

Oral multi-dose MTD = details: mouse, in vivo, mice
NCI-H929 = assay: Multiple myeloma colony growth in methylcellulose, NCI-H929; assay type: cell-based, human; details: NCI-H929, treated 96 hours, colonies quantified 10-21 days later
Experimental: (§3) The ability of Compound 42 to inhibit the growth of multiple myeloma cells (MM) in vitro was tested, using human multiple myeloma cells lines (NCI-H929 and KMS12) and primary clinical bone marrow specimens derived from patients with MM. The cells were treated for 96 hours with Compound, washed, then plated in methylcellulose. Tumor colonies were quantified 10-21 days later as an indicator of cell growth potential following treatment.

KMS12 = assay: Multiple myeloma colony growth in methylcellulose, KMS12; assay type: cell-based, human; details: KMS12, treated 96 hours, colonies quantified 10-21 days later
Experimental: as §3

[1] = tested on: primary clinical bone marrow specimens derived from patients with MM; assay: Multiple myeloma colony growth in methylcellulose, primary clinical specimens; assay type: cell-based, human; details: primary clinical MM samples, treated 96 hours, colonies quantified 10-21 days later
Experimental: as §3

U937 = assay: AML colony formation in methylcellulose, U937; assay type: cell-based, human; details: 1.0 um, 72 hours
Experimental: (§4) The ability of Compound 42 to inhibit the in vitro growth of human cell lines derived from patients with acute myeloid leukemia (AML, cell line U937) and myelodysplastic syndrome (MDS, cell line KG1 and KG1a) was studied. Each of the cell lines was treated for 72 hours with Compound 42 (1.0 um) followed by plating in methylcellulose.

KG1 = assay: MDS colony formation in methylcellulose, KG1; assay type: cell-based, human; details: 1.0 um, 72 hours
Experimental: as §4

KG1a = assay: MDS colony formation in methylcellulose, KG1a; assay type: cell-based, human; details: 1.0 um, 72 hours
Experimental: as §4

L428 = assay: Hodgkin's disease colony formation in methylcellulose, L428; assay type: cell-based, human; details: L428 (HD), 1.0 um, 72 hours
Experimental: (§5) The ability of Compound 42 to inhibit the in vitro growth of human cell lines derived from patients with non-Hodgkin's lymphoma (cell lines RL and Jeko-1) and Hodgkin's disease (cell line L428) was studied. Each of the cell lines was treated for 72 hours with Compound 42 (1.0 um) followed by plating in methylcellulose.

RL = assay: NHL colony formation in methylcellulose, RL; assay type: cell-based, human; details: 1.0 um, 72 hours
Experimental: as §5

Jeko-1 = assay: NHL colony formation in methylcellulose, Jeko-1; assay type: cell-based, human; details: Jeko-1 (NHL), 1.0 um, 72 hours
Experimental: as §5

[2] = tested on: Gli-responsive luciferase reporter; assay: Gli-responsive luciferase reporter transient transfection assay, REH; assay type: cell-based; details: 1 um, vehicle alone 6.73
Text: (§6) The activity of Compound 42 (1 um) against three pre-B cell acute lymphocytic leukemia cell lines (REH, RS4-11, and Nalm-6) was studied, using a transient transfection assay in which a Gli-responsive luciferase reporter was transiently transfected into cells. Treatment with Compound 42 repressed luciferase activity compared to a vehicle treated control (Table 4).

[3] = tested on: Gli-responsive luciferase reporter; assay: Gli-responsive luciferase reporter transient transfection assay, RS4-11; assay type: cell-based; details: RS4-11, 1 um; vehicle alone 12.97
Text: as §6

[4] = tested on: Gli-responsive luciferase reporter; assay: Gli-responsive luciferase reporter transient transfection assay, Nalm-6; assay type: cell-based; details: Nalm-6, 1 um; vehicle alone 8.42
Text: as §6

REH = assay: ALL colony formation in methylcellulose, REH; assay type: cell-based; details: treated 72 hours
Experimental: (§7) The effect of Compound 42 on the growth of two of these cell lines, treated in vitro for 72 hours, was also studied. Following treatment, cells were washed and plated in methylcellulose.

RS4-11 = assay: ALL colony formation in methylcellulose, RS4-11; assay type: cell-based; details: RS4-11, treated 72 hours
Experimental: as §7

Structure (SMILES): CC(=O)NCCN1C[C@@H](C)C[C@H]2O[C@]3(CC[C@@H]4C(=C(C)C3)C[C@H]3[C@H]4CC[C@@H]4CC(=O)CC[C@@]43C)[C@H](C)[C@@H]21 [Compound 21]
- EC50 (Hedgehog pathway; Mus musculus, C3H 10T1/2): 20 to 100 nM

Structure (SMILES): CC1=C2C[C@H]3[C@@H](CC=C4C[C@@H](OCc5ccccc5)CC[C@@]43C)[C@@H]2CC[C@@]2(C1)O[C@@H]1C[C@H](C)CN(C(=O)OCc3ccccc3)[C@H]1[C@H]2C [Compound 7]
- EC50 (Hedgehog pathway): > 100 nM

Structure (SMILES): CC1=C2C[C@H]3[C@@H](CC[C@@H]4CC(=O)CC[C@@]43C)[C@@H]2CC[C@@]2(C1)O[C@@H]1C[C@H](C)CN(CCN(C)C(=O)CCc3ccccc3)[C@H]1[C@H]2C [Compound 24]
- EC50 (Hedgehog pathway; Mus musculus, C3H 10T1/2): < 20 nM

Structure (SMILES): CC1=C2C[C@H]3[C@@H](CC[C@@H]4CC(=O)CC[C@@]43C)[C@@H]2CC[C@@]2(C1)O[C@@H]1C[C@H](C)CN(C(C)C)[C@H]1[C@H]2C [Compound 10]
- EC50 (Hedgehog pathway; Mus musculus, C3H 10T1/2): > 100 nM

Structure (SMILES): CC1=C2C[C@H]3[C@@H](CC[C@@H]4C[C@H](NS(C)(=O)=O)CC[C@@]43C)[C@@H]2CC[C@@]2(C1)O[C@@H]1C[C@H](C)CN[C@H]1[C@H]2C [Compound 42]
- EC50 (Hedgehog pathway; Mus musculus, C3H 10T1/2): < 20 nM
- reduction of tumor volume growth compared to vehicle control (BXPC-3 cells): 40%
- human Gli-1 modulation (q-RT-PCR) (human Gli-1): no modulation
- murine Gli-1 mRNA levels (q-RT-PCR) (murine Gli-1): robust down-regulation
- ED50 (medulloblastoma; Mus musculus, daily oral dosing, approximate, read-out: effective daily oral dose for 50% inhibition of tumor growth (ED50)): ~4 mg/kg
- inhibition of tumor growth (medulloblastoma; daily (QD) PO administration): dose dependent inhibition of tumor growth, with frank tumor regression seen at higher doses
- long term survival following cessation of treatment (medulloblastoma; treated QD for 21 days): > 60 days
- tumor re-growth following cessation of treatment (medulloblastoma; treated QD for 21 days): little to no tumor re-growth
- HH pathway down-regulation measured by Gli-1 mRNA expression (Gli-1): dose-dependent down-regulation
- tumor recurrence after etoposide/carboplatin (E/P), treated vs vehicle group (LX22 cells; follow up treatment from day 50, 40 mg/kg/day orally, 35 consecutive doses, p=0.0101): substantial delay in tumor recurrence
- single agent activity, treated vs vehicle groups (LX22 cells; orally 40 mg/kg/day, 16 consecutive doses): no measurable difference
- MTD (Oral multi-dose MTD): 40 mg/kg/day
- growth of cells relative to untreated control (100%) (NCI-H929): less than 25%
- growth of cells relative to untreated control (100%) (KMS12): less than 25%
- growth of cells relative to untreated control (100%) [1]: less than 25%
- % colony formation with Compound 42 (relative to vehicle control) (U937): 43.4%
- % colony formation with Compound 42 (relative to vehicle control) (KG1): 25.1%
- % colony formation with Compound 42 (relative to vehicle control) (KG1a): 34.6%
- % colony formation with Compound 42 (relative to vehicle control) (L428): 21.4%
- % colony formation with Compound 42 (relative to vehicle control) (RL): 14.3%
- % colony formation with Compound 42 (relative to vehicle control) (Jeko-1): 27.4%
- Relative luc activity (+Compound) [2]: 1.12
- Relative luc activity (+Compound) [3]: 1.31
- Relative luc activity (+Compound) [4]: 1.44
- colony formation with Compound (relative to vehicle control) - 1° plating (REH): 63
- colony formation with Compound (relative to vehicle control) - 2° plating (REH; replating of colonies): 9
- colony formation with Compound (relative to vehicle control) - 1° plating (RS4-11): 71
- colony formation with Compound (relative to vehicle control) - 2° plating (RS4-11; replating of colonies): 11

Structure (SMILES): CC(=O)N(C)CCN1C[C@@H](C)C[C@H]2O[C@]3(CC[C@@H]4C(=C(C)C3)C[C@H]3[C@H]4CC[C@@H]4CC(=O)CC[C@@]43C)[C@H](C)[C@@H]21 [Compound 22]
- EC50 (Hedgehog pathway; Mus musculus, C3H 10T1/2): < 20 nM
